PubChem BioAssay (NCI)
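Tested at 5 concentrations; 48 h exposure; 96-well plates; endpoints linearly interpolated, else capped at highest concentration. GI50 is the concentration that inhibits growth by half. The concentration for full growth arrest is given as TGI.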

Experiments:
Test in all cases: inhibition of tumour cell growth, NCI panel, 48 h
HCC-2998 colon = test system: HCC-2998 colon
MOLT-4 leukemia = test system: MOLT-4 leukemia
MDA-MB-435 = test system: MDA-MB-435
NCI-H226 lung = test system: NCI-H226 lung
NCI-H522 lung = test system: NCI-H522 lung
HCT-15 colon = test system: HCT-15 colon
DU-145 prostate = test system: DU-145 prostate
HS 578T breast = test system: HS 578T breast
NCI-H460 lung = test system: NCI-H460 lung
CAKI-1 renal = test system: CAKI-1 renal
EKVX NSCLC = test system: EKVX NSCLC
SF-539 CNS = test system: SF-539 CNS
RPMI-8226 leukemia = test system: RPMI-8226 leukemia
RXF 393 renal = test system: RXF 393 renal
SR leukemia = test system: SR leukemia
BT-549 breast = test system: BT-549 breast
A498 renal = test system: A498 renal
SF-295 CNS = test system: SF-295 CNS
U251 CNS = test system: U251 CNS
MDA-MB-231 breast = test system: MDA-MB-231 breast
OVCAR-3 ovarian = test system: OVCAR-3 ovarian
UO-31 renal = test system: UO-31 renal
KM12 colon = test system: KM12 colon
HOP-62 NSCLC = test system: HOP-62 NSCLC
MALME-3M melanoma = test system: MALME-3M melanoma
ACHN renal = test system: ACHN renal
SNB-19 CNS = test system: SNB-19 CNS
T-47D breast = test system: T-47D breast
OVCAR-5 ovarian = test system: OVCAR-5 ovarian
A549 NSCLC = test system: A549 NSCLC
SK-MEL-2 melanoma = test system: SK-MEL-2 melanoma
MCF7 breast = test system: MCF7 breast
SK-OV-3 ovarian = test system: SK-OV-3 ovarian
NCI-H23 lung = test system: NCI-H23 lung
IGROV1 ovarian = test system: IGROV1 ovarian
UACC-62 melanoma = test system: UACC-62 melanoma
SN12C renal = test system: SN12C renal
LOX IMVI melanoma = test system: LOX IMVI melanoma
SK-MEL-28 melanoma = test system: SK-MEL-28 melanoma
786-0 renal = test system: 786-0 renal
SK-MEL-5 melanoma = test system: SK-MEL-5 melanoma
TK-10 renal = test system: TK-10 renal
CCRF-CEM leukemia = test system: CCRF-CEM leukemia
M14 melanoma = test system: M14 melanoma
K-562 leukemia = test system: K-562 leukemia
HL-60(TB) leukemia = test system: HL-60(TB) leukemia
UACC-257 melanoma = test system: UACC-257 melanoma
NCI/ADR-RES ovarian = test system: NCI/ADR-RES ovarian
OVCAR-8 ovarian = test system: OVCAR-8 ovarian
SNB-75 CNS = test system: SNB-75 CNS
HCT-116 colon = test system: HCT-116 colon
SW-620 colon = test system: SW-620 colon
HOP-92 NSCLC = test system: HOP-92 NSCLC
COLO 205 colon = test system: COLO 205 colon
OVCAR-4 ovarian = test system: OVCAR-4 ovarian
HT29 colon = test system: HT29 colon
SF-268 CNS = test system: SF-268 CNS
PC-3 prostate = test system: PC-3 prostate

Cc1nc2sc(C(=O)Nc3cccc4ccccc34)c(N)c2cc1C(O)c1ccccc1 (stereo unspecified)
GI50 (HCC-2998 colon): 193 nM | TGI (HCC-2998 colon): 2890 nM | GI50 (MOLT-4 leukemia): 79.6 nM | TGI (MOLT-4 leukemia): > 65700 nM | GI50 (MDA-MB-435): 20.5 nM | TGI (MDA-MB-435): 46.9 nM | GI50 (NCI-H226 lung): 1190 nM | TGI (NCI-H226 lung): 28400 nM | GI50 (NCI-H522 lung): 48 nM | TGI (NCI-H522 lung): 11400 nM | GI50 (HCT-15 colon): 38.8 nM | TGI (HCT-15 colon): 11100 nM | GI50 (DU-145 prostate): 80.4 nM | TGI (DU-145 prostate): 6670 nM | GI50 (HS 578T breast): 30.6 nM | TGI (HS 578T breast): 693 nM | GI50 (NCI-H460 lung): 38.1 nM | TGI (NCI-H460 lung): 449 nM | GI50 (CAKI-1 renal): 58.3 nM | TGI (CAKI-1 renal): 12000 nM | GI50 (EKVX NSCLC): 375 nM | TGI (EKVX NSCLC): 37500 nM | GI50 (SF-539 CNS): 34.1 nM | TGI (SF-539 CNS): 290 nM | GI50 (RPMI-8226 leukemia): 59.5 nM | TGI (RPMI-8226 leukemia): 5740 nM | GI50 (RXF 393 renal): 30.7 nM | TGI (RXF 393 renal): 24700 nM | GI50 (SR leukemia): 40 nM | TGI (SR leukemia): > 43000 nM | GI50 (BT-549 breast): 144 nM | TGI (BT-549 breast): 3630 nM | GI50 (A498 renal): 20.2 nM | TGI (A498 renal): 63.6 nM | GI50 (SF-295 CNS): 51.3 nM | TGI (SF-295 CNS): 4420 nM | GI50 (U251 CNS): 49.9 nM | TGI (U251 CNS): 13500 nM | GI50 (MDA-MB-231 breast): 150 nM | TGI (MDA-MB-231 breast): 5360 nM | GI50 (OVCAR-3 ovarian): 31.7 nM | TGI (OVCAR-3 ovarian): 97.6 nM | GI50 (UO-31 renal): 283 nM | TGI (UO-31 renal): 14200 nM | GI50 (KM12 colon): 44 nM | TGI (KM12 colon): 1730 nM | GI50 (HOP-62 NSCLC): 81 nM | TGI (HOP-62 NSCLC): 19100 nM | GI50 (MALME-3M melanoma): 55.8 nM | TGI (MALME-3M melanoma): 21200 nM | GI50 (ACHN renal): 72.6 nM | TGI (ACHN renal): 19200 nM | GI50 (SNB-19 CNS): 108 nM | TGI (SNB-19 CNS): > 66700 nM | GI50 (T-47D breast): 52.7 nM | TGI (T-47D breast): 88600 nM | GI50 (OVCAR-5 ovarian): 280 nM | TGI (OVCAR-5 ovarian): > 100000 nM | GI50 (A549 NSCLC): 91.6 nM | TGI (A549 NSCLC): > 100000 nM | GI50 (SK-MEL-2 melanoma): 290 nM | TGI (SK-MEL-2 melanoma): 16900 nM | GI50 (MCF7 breast): 37.3 nM | TGI (MCF7 breast): 13400 nM | GI50 (SK-OV-3 ovarian): 70.2 nM | TGI (SK-OV-3 ovarian): 67400 nM | GI50 (NCI-H23 lung): 104 nM | TGI (NCI-H23 lung): 15300 nM | GI50 (IGROV1 ovarian): 65.1 nM | TGI (IGROV1 ovarian): 12400 nM | GI50 (UACC-62 melanoma): 74.7 nM | TGI (UACC-62 melanoma): 12300 nM | GI50 (SN12C renal): 97.1 nM | TGI (SN12C renal): 9490 nM | GI50 (LOX IMVI melanoma): 56.8 nM | TGI (LOX IMVI melanoma): 6670 nM | GI50 (SK-MEL-28 melanoma): 1140 nM | TGI (SK-MEL-28 melanoma): 24200 nM | GI50 (786-0 renal): 123 nM | TGI (786-0 renal): 9690 nM | GI50 (SK-MEL-5 melanoma): 99.3 nM | TGI (SK-MEL-5 melanoma): 717 nM | GI50 (TK-10 renal): 1570 nM | TGI (TK-10 renal): > 91500 nM | GI50 (CCRF-CEM leukemia): 40.9 nM | TGI (CCRF-CEM leukemia): > 100000 nM | GI50 (M14 melanoma): 40.9 nM | TGI (M14 melanoma): 15000 nM | GI50 (K-562 leukemia): 44.2 nM | TGI (K-562 leukemia): > 39600 nM | GI50 (HL-60(TB) leukemia): 37.6 nM | TGI (HL-60(TB) leukemia): 194 nM | GI50 (UACC-257 melanoma): 1500 nM | TGI (UACC-257 melanoma): 26400 nM | GI50 (NCI/ADR-RES ovarian): 37.3 nM | TGI (NCI/ADR-RES ovarian): 968 nM | GI50 (OVCAR-8 ovarian): 101 nM | TGI (OVCAR-8 ovarian): 71200 nM | GI50 (SNB-75 CNS): 24.1 nM | TGI (SNB-75 CNS): 11700 nM | GI50 (HCT-116 colon): 43.9 nM | TGI (HCT-116 colon): 10900 nM | GI50 (SW-620 colon): 37.7 nM | TGI (SW-620 colon): 23400 nM | GI50 (HOP-92 NSCLC): 2110 nM | TGI (HOP-92 NSCLC): 18800 nM | GI50 (COLO 205 colon): 349 nM | TGI (COLO 205 colon): 2280 nM | GI50 (OVCAR-4 ovarian): 215 nM | TGI (OVCAR-4 ovarian): 44200 nM | GI50 (HT29 colon): 38 nM | TGI (HT29 colon): 14100 nM | GI50 (SF-268 CNS): 174 nM | TGI (SF-268 CNS): 11200 nM | GI50 (PC-3 prostate): 118 nM | TGI (PC-3 prostate): > 38000 nM
